Assay results published in patent publication US9115093B2, “Substituted bicyclic dihydropyrimidinones and their use as inhibitors of neutrophil elastase activity” (Boehringer Ingelheim International GmbH, priority 2013, dated 2015).
pIC50: −log10 of the molar value.

These compounds were tested against T1, neutrophil elastase (Homo sapiens, UniProt P08246) (assay: Human Neutrophil Elastase Assay). Conditions: substrate MeOSuc-Ala-Ala-Pro-Val-AMC, pH 7.5, room temperature.
T1 sequence (P08246 30-247 limits assumed): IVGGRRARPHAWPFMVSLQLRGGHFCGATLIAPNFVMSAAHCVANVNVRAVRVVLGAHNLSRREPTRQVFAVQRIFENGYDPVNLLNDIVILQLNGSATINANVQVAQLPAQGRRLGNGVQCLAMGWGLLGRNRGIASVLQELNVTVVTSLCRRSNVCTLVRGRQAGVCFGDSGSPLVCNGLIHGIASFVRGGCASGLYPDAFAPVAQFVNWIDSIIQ
Assay type: biochemical
Set-up: purchased Calbiochem 324681
Procedure: Human Neutrophil Elastase Assay
Materials: Human neutrophil elastase was purchased from Calbiochem (Cat.No.: 324681) and the elastase substrate MeOSuc-Ala-Ala-Pro-Val-AMC from Bachem (Cat.No.: I-1270). All other materials were of the highest grade commercially available.
The following buffers were used: Compound buffer: 100 mM Tris, 500 mM NaCl, adjusted to pH 7.5; Assay buffer: 100 mM Tris, 500 mM NaCl, adjusted to pH 7.5, containing 0.01% BSA.
Assay conditions: Test compounds were prediluted in DMSO and subsequently in compound buffer (5% DMSO final). 5 μL of these compound dilutions were mixed with 10 μl Neutrophil elastase (9 ng/ml in assay buffer) in a black 384 well OptiPlate (Perkin Elmer, Cat No.: 6007270) and incubated for 15 min at room temperature. Subsequently 10 μL substrate solution in assay buffer were added (250 nM final concentration) and the plates were incubated for 60 min at room temperature. After inactivation of the enzyme, fluorescence intensities were measured at 380 nm excitation and 460 nm emission wavelengths.
Each plate contains wells with a high value control (DMSO+enzyme+substrate) and wells with a low value control (DMSO+inactivated enzyme+substrate). IC50 values were estimated using a sigmoidal concentration response curve with variable slope. Means of low values were taken as 0%, means of high values as 100%.

SMILES | pIC50
N#Cc1ccc(C2NC(=O)N(c3cccc(C(F)(F)F)c3)C3=C2C(=O)CCC3)c(F)c1 (centres unmarked) [Example 52, 4-(2,5-Dioxo-1-(3-(trifluoromethyl)phenyl)-1,2,3,4,5,6,7,8-octahydroquinazolin-4-yl)-3-fluorobenzonitrile] | 7.57
Cn1cc(CN2C(=O)N(c3cccc(C(F)(F)F)c3)C3=C(C(=O)CCC3)C2c2ccc(C#N)cc2)cn1 (centres unmarked) [Example 24.2] | 8.01
CS(=O)(=O)CS(=O)(=O)N1C(=O)N(c2cccc(C(F)(F)F)c2)C2=C(C(=O)CCC2)C1c1ccc(C#N)cc1 (centres unmarked) [Example 44.9] | 8.47
Cn1cc(NC(=O)CN2C(=O)N(c3cccc(C(F)(F)F)c3)C3=C(C(=O)CCC3)C2c2ccc(C#N)cc2)ccc1=O (centres unmarked) [Example 36.53] | 7.97
N#Cc1ccc(C2C3=C(CCCC3=O)N(c3cccc(C(F)(F)F)c3)C(=O)N2S(=O)(=O)c2ccco2)cc1 (centres unmarked) [Example 44.4] | 7.81
CN1C(=O)CCC1CNC(=O)CN1C(=O)N(c2cccc(C(F)(F)F)c2)C2=C(C(=O)CCC2)C1c1ccc(C#N)cc1 (centres unmarked) [Example 36.57] | 7.98
N#Cc1ccc(C2C3=C(CCCC3=O)N(c3cccc(C(F)(F)F)c3)C(=O)N2CC2CCOC2)cc1 (centres unmarked) [Example 25, 4-(1-(3-(Trifluoromethyl)phenyl)-2,5-dioxo-3-((tetrahydrofuran-3-yl)methyl)-1,2,3,4,5,6,7,8-octahydroquinazolin-4-yl)benzonitrile] | 8.07
CN(C)C(=O)CN1C(=O)N(c2cccc(C(F)(F)F)c2)C2=C(C(=O)CCC2)C1c1ccc(C#N)cc1S(C)(=O)=O (centres unmarked) [Example 62, 2-(4-(4-Cyano-2-(methylsulfonyl)phenyl)-2,5-dioxo-1-(3-(trifluoromethyl)phenyl)-1,2,5,6,7,8-hexahydroquinazolin-3(4H)-yl)-N,N-dimethylacetamide] | 8.92
N#Cc1ccc(C2C3=C(CCCC3=O)N(c3cccc(C(F)(F)F)c3)C(=O)N2CC(=O)NCC2CCCO2)cc1 (centres unmarked) [Example 36.24] | 8.00
COCCN1C(=O)N(c2cccc(C(F)(F)F)c2)C2=C(C(=O)CCC2)C1c1ccc(C#N)cc1 (centres unmarked) [Example 22, 4-(1-(3-(Trifluoromethyl)phenyl)-3-(2-methoxyethyl)-2,5-dioxo-1,2,3,4,5,6,7,8-octahydroquinazolin-4-yl)benzonitrile] | 8.06
COC(=O)c1ccc(CN2C(=O)N(c3cccc(C(F)(F)F)c3)C3=C(C(=O)CCC3)C2c2ccc(C#N)cc2)o1 (centres unmarked) [Example 28, Methyl 5-((4-(4-Cyanophenyl)-2,5-dioxo-1-(3-(trifluoromethyl)phenyl)-1,2,5,6,7,8-hexahydroquinazolin-3(4H)-yl)methyl)furan-2-carboxylate] | 7.54
CN1CCN(C(=O)N2C(=O)N(c3cccc(C(F)(F)F)c3)C3=C(C(=O)CCC3)C2c2ccc(C#N)cc2)CC1=O (centres unmarked) [Example 39.16] | 7.33
N#Cc1ccc(C2C3=C(CCCC3=O)N(c3cccc(C(F)(F)F)c3)C(=O)N2CC(=O)N2CCNC(=O)C2)cc1 (centres unmarked) [Example 36.21] | 8.68
COC1CCN(C(=O)N2C(=O)N(c3cccc(C(F)(F)F)c3)C3=C(C(=O)CCC3)C2c2ccc(C#N)cc2)CC1 (centres unmarked) [Example 39.18] | 7.10
N#Cc1ccc(C2NC(=O)N(c3cccc(C(F)(F)F)c3)C3=C2C(=O)CC(c2ccccc2)C3)cc1 (centres unmarked) [Example 6, 4-(2,5-dioxo-7-phenyl-1-(3-(trifluoromethyl)phenyl)-1,2,3,4,5,6,7,8-octahydroquinazolin-4-yl)benzonitrile] | 7.32
CS(=O)(=O)c1cc(C#N)ccc1[C@@H]1C2=C(CCCC2=O)N(c2cccc(C(F)(F)F)c2)C(=O)N1C(=O)NC1(C#N)CC1 [Example 75.8] | > 9.00
Cn1nccc1CN1C(=O)N(c2cccc(C(F)(F)F)c2)C2=C(C(=O)CCC2)C1c1ccc(C#N)cc1 (centres unmarked) [Example 24.1] | 8.18
N#Cc1ccc(C2C3=C(CCCC3=O)N(c3cccc(C(F)(F)F)c3)C(=O)N2S(=O)(=O)c2csc(C(=O)O)c2)cc1 (centres unmarked) [Example 46, 4-(4-(4-Cyanophenyl)-2,5-dioxo-1-(3-(trifluoromethyl)phenyl)-1,2,5,6,7,8-hexahydroquinazolin-3(4H)-ylsulfonyl)thiophene-2-carboxylic acid] | 7.67
CS(=O)(=O)CCN1C(=O)N(c2cccc(C(F)(F)F)c2)C2=C(C(=O)CCC2)C1c1ccc(C#N)cc1 (centres unmarked) [Example 30, 4-(3-(2-(Methylsulfonyl)ethyl)-2,5-dioxo-1-(3-(trifluoromethyl)phenyl)-1,2,3,4,5,6,7,8-octahydroquinazolin-4-yl)benzonitrile] | 8.40
CN1CCC(NC(=O)N2C(=O)N(c3cccc(C(F)(F)F)c3)C3=C(C(=O)CCC3)C2c2ccc(C#N)cc2)C1=O (centres unmarked) [Example 39.15] | > 9.00
Cn1ccc(S(=O)(=O)N2C(=O)N(c3cccc(C(F)(F)F)c3)C3=C(C(=O)CCC3)C2c2ccc(C#N)cc2)n1 (centres unmarked) [Example 44.7] | 7.80
N#Cc1ccc(C2C3=C(CCCC3=O)N(c3cccc(C(F)(F)F)c3)C(=O)N2CC(=O)NCC2CCOC2)cc1 (centres unmarked) [Example 36.22] | 8.17
N#Cc1ccc(C2C3=C(CCCC3=O)N(c3cccc(C(F)(F)F)c3)C(=O)N2CC(=O)O)cc1 (centres unmarked) [Example 32, 2-(4-(4-Cyanophenyl)-2,5-dioxo-1-(3-(trifluoromethyl)phenyl)-1,2,5,6,7,8-hexahydroquinazolin-3(4H)-yl)acetic acid] | 7.92
Cc1nnc(CNC(=O)CN2C(=O)N(c3cccc(C(F)(F)F)c3)C3=C(C(=O)CCC3)C2c2ccc(C#N)cc2)o1 (centres unmarked) [Example 36.35] | 8.15
CS(=O)(=O)c1cc(C#N)ccc1C1C2=C(CCCC2=O)N(c2cccc(C(F)(F)F)c2)C(=O)N1CC1CCOCC1 (centres unmarked) [Example 58.5] | 8.72
N#Cc1ccc(C2C3=C(CCCC3=O)N(c3cccc(C(F)(F)F)c3)C(=O)N2CC(=O)N2CCN3C(=O)CCCC3C2)cc1 (centres unmarked) [Example 36.72] | 8.43
COC1CCN(C(=O)CN2C(=O)N(c3cccc(C(F)(F)F)c3)C3=C(C(=O)CCC3)C2c2ccc(C#N)cc2)C1 (centres unmarked) [Example 36.23] | 8.68
CN(C)C(=O)N1C(=O)N(c2cccc(C(F)(F)F)c2)C2=C(C(=O)CCC2)C1c1ccc(C#N)cc1 (centres unmarked) [Example 38, 4-(4-Cyanophenyl)-N,N-dimethyl-2,5-dioxo-1-(3-(trifluoromethyl)phenyl)-1,2,5,6,7,8-hexahydroquinazoline-3(4H)-carboxamide] | 7.17

Other lines, results leading:

pIC50 | SMILES
> 9.00 | CCNC(=O)N1C(=O)N(c2cccc(C(F)(F)F)c2)C2=C(C(=O)CCC2)C1c1ccc(C#N)cc1 (centres unmarked) [Example 70.1]
8.85 | CC(C)NC(=O)N1C(=O)N(c2cccc(C(F)(F)F)c2)C2=C(C(=O)CCC2)C1c1ccc(C#N)cc1 (centres unmarked) [Example 70.4]
> 9.00 | N#Cc1ccc(C2C3=C(CCCC3=O)N(c3cccc(C(F)(F)F)c3)C(=O)N2C(=O)NC2CCS(=O)(=O)C2)cc1 (centres unmarked) [Example 70.19]
> 9.00 | N#Cc1ccc(C2C3=C(CCCC3=O)N(c3cccc(C(F)(F)F)c3)C(=O)N2C(=O)NCC2CC(O)C2)cc1 (centres unmarked) [Example 70.15]
> 9.00 | N#Cc1ccc(C2C3=C(CCCC3=O)N(c3cccc(C(F)(F)F)c3)C(=O)N2C(=O)NCC(F)F)cc1 (centres unmarked) [Example 70.6]
> 9.00 | N#Cc1ccc(C2C3=C(CCCC3=O)N(c3cccc(C(F)(F)F)c3)C(=O)N2C(=O)NC2CS(=O)(=O)C2)cc1 (centres unmarked) [Example 70.18]
> 9.00 | N#Cc1ccc(C2C3=C(CCCC3=O)N(c3cccc(C(F)(F)F)c3)C(=O)N2C(=O)NC2CC2)cc1 (centres unmarked) [Example 70.3]
